The test system of data set [1] is HCT-116. Description: Induction of apoptosis in human HCT-116 cells assessed as downregulation of ACACA gene expression at 10 to 500 nM incubated for 6 to 48 hrs by RNA analysis. It is filed as functional, cell-based. The following applies: dose 10-500 nM, time 6-48 hrs.
Data set [2] relates to HCT-116. The experiment in a line: Induction of apoptosis in human HCT-116 cells assessed as increase in intracellular ROS level at 10 to 1000 nM incubated for 12 hrs by DCFH-DA staining based fluorescence microscopy. It is filed as functional, cell-based. Conditions: dose 10-1000 nM.
Data set [3] has as its system HCT-116. Description: Induction of apoptosis in human HCT-116 cells assessed as downregulation of NUP62 gene expression at 10 to 500 nM incubated for 6 to 48 hrs by RNA analysis. The following applies: dose 10-500 nM, time 6-48 hrs. Format: functional, cell-based.
For data set [4], the system named is HCT-116. Description: Induction of apoptosis in human HCT-116 cells assessed as downregulation of TPR gene expression at 10 to 500 nM incubated for 6 to 48 hrs by RNA analysis. Format: functional, cell-based. The following applies: dose 10-500 nM, time 6-48 hrs.
A further data set deals with A549. The experiment in a line: Growth inhibition of human A549 cells incubated for 48 hrs by MTT reagent based ELISA reader analysis. Format: functional, cell-based. The following applies: A549, 48 h.
The test system of data set [5] is HCT-116. Description: Induction of apoptosis in human HCT-116 cells assessed as downregulation of AK8 gene expression at 10 to 500 nM incubated for 6 to 48 hrs by RNA analysis. Format: functional, cell-based. Conditions: dose 10-500 nM, time 6-48 hrs.
The subject of data set [6] is HCT-116. Description: Induction of apoptosis in human HCT-116 cells assessed as downregulation of NUP58 gene expression at 10 to 500 nM incubated for 6 to 48 hrs by RNA analysis. Format: functional, cell-based. The following applies: dose 10-500 nM, time 6-48 hrs.
In data set [7] the test system is HCT-116. Description: Induction of apoptosis in human HCT-116 cells assessed as modulation of DDX21 mRNA expression at 10 to 500 nM incubated for 6 to 48 hrs by RNA analysis. The following applies: dose 10-500 nM, time 6-48 hrs. It is filed as functional, cell-based.
Data set [8] relates to HCT-116. The experiment in a line: Induction of apoptosis in human HCT-116 cells assessed as downregulation of CTPS2 gene expression at 10 to 500 nM incubated for 6 to 48 hrs by RNA analysis. Format: functional, cell-based. The following applies: dose 10-500 nM, time 6-48 hrs.
Data set [9] has as its system HCT-116. The experiment in a line: Induction of apoptosis in human HCT-116 cells assessed as upregulation of DDX5 mRNA expression at 50 nM incubated for 24 hrs by RNA analysis. Format: functional, cell-based.
The test system of data set [10] is HCT-116. The experiment in a line: Induction of apoptosis in human HCT-116 cells assessed as downregulation of ADK gene expression at 10 to 500 nM incubated for 6 to 48 hrs by RNA analysis. It is filed as functional, cell-based. The following applies: dose 10-500 nM, time 6-48 hrs.
Data set [11] concerns HCT-116. The experiment in a line: Induction of apoptosis in human HCT-116 cells assessed as downregulation of DHODH gene expression at 10 to 500 nM incubated for 6 to 48 hrs by RNA analysis. The following applies: dose 10-500 nM, time 6-48 hrs. It is filed as functional, cell-based.
The test system of data set [12] is HCT-116. Description: Induction of apoptosis in human HCT-116 cells assessed as downregulation of GART gene expression at 10 to 500 nM incubated for 6 to 48 hrs by RNA analysis. It is filed as functional, cell-based. The following applies: dose 10-500 nM, time 6-48 hrs.
For data set [13], the system named is HCT-116. The experiment in a line: Induction of apoptosis in human HCT-116 cells assessed as downregulation of GNPDA2 gene expression at 10 to 500 nM incubated for 6 to 48 hrs by RNA analysis. Format: functional, cell-based. The following applies: dose 10-500 nM, time 6-48 hrs.
The test system of data set [14] is HCT-116. Description: Induction of apoptosis in human HCT-116 cells assessed as upregulation of ADCY6 mRNA expression at 10 to 500 nM incubated for 6 to 48 hrs by RNA analysis. It is filed as functional, cell-based. The following applies: dose 10-500 nM, time 6-48 hrs.
The subject of data set [15] is HCT-116. Description: Induction of apoptosis in human HCT-116 cells assessed as downregulation of PPAT gene expression at 10 to 500 nM incubated for 6 to 48 hrs by RNA analysis. Format: functional, cell-based. The following applies: dose 10-500 nM, time 6-48 hrs.
Data set [16] can be described thus: Toxicity in SCID mouse assessed as maximum tolerated dose at po administration. Format: organism-based. Conditions: in vivo.
Data set [17] concerns HCT-116. Description: Induction of apoptosis in human HCT-116 cells assessed as downregulation of PUDP gene expression at 10 to 500 nM incubated for 6 to 48 hrs by RNA analysis. It is filed as functional, cell-based. Conditions: dose 10-500 nM, time 6-48 hrs.
In data set [18] the test system is HCT-116. The experiment in a line: Induction of apoptosis in human HCT-116 cells assessed as downregulation of AAAS gene expression at 10 to 500 nM incubated for 6 to 48 hrs by RNA analysis. It is filed as functional, cell-based. Conditions: dose 10-500 nM, time 6-48 hrs.
Data set [19] has as its system HCT-116. Description: Induction of apoptosis in human HCT-116 cells assessed as increase in caspase-9 activity incubated for 48 hrs by BCA protein assay. It is filed as functional, cell-based.
Data set [20] deals with HCT-116. Description: Induction of apoptosis in human HCT-116 cells assessed as late apoptotic cells at 5 nM incubated for 48 hrs by Annexin V-FITC/PI staining based flow cytometry assay. It is filed as functional.
The test system of data set [21] is HCT-116. Description: Induction of apoptosis in human HCT-116 cells assessed as downregulation of Survivin protein expression incubated for 48 hrs by Western blotting analysis. Format: functional, cell-based.
Data set [22] relates to HCT-116. Description: Induction of apoptosis in human HCT-116 cells assessed as upregulation of p21 protein expression incubated for 48 hrs by Western blotting analysis. Format: functional, cell-based.
The test system of data set [23] is HCT-116. Description: Induction of cell cycle arrest in human HCT-116 cells assessed as accumulation of cells at S phase at 2.5 to 10 nM incubated for 48 hrs by Annexin V-FITC/PI staining based flow cytometry assay. It is filed as functional. Conditions: dose 2.5-10 nM.
The test system of data set [24] is HCT-116. Description: Induction of apoptosis in human HCT-116 cells assessed as early apoptotic cells at 5 nM incubated for 48 hrs by Annexin V-FITC/PI staining based flow cytometry assay. Format: functional.
In data set [25] the test system is HCT-116. The experiment in a line: Induction of apoptosis in human HCT-116 cells assessed as early apoptotic cells at 2.5 nM incubated for 48 hrs by Annexin V-FITC/PI staining based flow cytometry assay. Format: functional.
In data set [26] the test system is PDX27454. Description: Antitumor activity against human PDX27454 cells xenografted in SCID mouse model assessed as reduction in tumor growth at 5 to 15 mg/kg,ip administrated once per week for 4 weeks. Format: functional, organism-based. Conditions: dose 5-15 mg/kg.
Data set [27] deals with HCT-116. Description: Induction of apoptosis in human HCT-116 cells assessed as upregulation of Bax protein expression incubated for 48 hrs by Western blotting analysis. It is filed as functional, cell-based.
The subject of data set [28] is PDX27454. Description: Antitumor activity against human PDX27454 cells xenografted in SCID mouse model assessed as reduction in tumor volume at 8 mg/kg,po administrated once per week for 3 weeks. Format: functional, organism-based.
Data set [29] concerns PDX27454. Description: Antitumor activity against human PDX27454 cells xenografted in SCID mouse model assessed as reduction in tumor growth at 10 mg/kg,ip administrated once per week for 4 weeks. It is filed as functional, organism-based.
Data set [30] concerns PDX27454. The experiment in a line: Antitumor activity against human PDX27454 cells xenografted in SCID mouse model assessed as reduction in tumor growth at 15 mg/kg,po administrated once per week for 4 weeks. It is filed as functional, organism-based.
In data set [31] the test system is HCT-116. The experiment in a line: Induction of apoptosis in human HCT-116 cells assessed as downregulation of XIAP protein expression incubated for 48 hrs by Western blotting analysis. Format: functional, cell-based.
Data set [32] can be described thus: Toxicity in SCID mouse xenografted with human PDX27454 cells assessed as body weight loss at 10 mg/kg,po administrated once per week for 4 weeks. Format: organism-based. Conditions: in vivo, 672 h.
Data set [33] is described as follows: Toxicity in SCID mouse xenografted with human PDX27454 cells assessed as animal death at 10 mg/kg,ip administrated once per week for 4 weeks. Format: organism-based. The following applies: in vivo, 672 h.
Data set [34] relates to PDX27454. Description: Antitumor activity against human PDX27454 cells xenografted in SCID mouse model assessed as reduction in tumor growth at 2.5 to 10 mg/kg,ip administrated once per week for 4 weeks. The following applies: dose 2.5-10 mg/kg. It is filed as functional, organism-based.
Data set [35] is described as follows: Toxicity in SCID mouse xenografted with human PDX27454 cells assessed as body weight loss at 7 mg/kg,po administrated once per week for 4 weeks. Format: organism-based. Conditions: in vivo, 672 h.

The source made the active and inactive calls. No cut-off for these calls is given here.

Consider `CC[C@@]1(O)C(=O)OCc2c1cc1n(c2=O)Cc2cc3cc4c(cc3nc2-1)OCO4`, for which the result in the data set with HCT-116 [1], in the data set with HCT-116 [2], in the data set with HCT-116 [3], in the data set on HCT-116 [4], with HCT-116 [5] and in the data set on HCT-116 [6] was Active. Moreover, the result in the data set with HCT-116 [7], with HCT-116 [8], in the data set on HCT-116 [10], in the data set on HCT-116 [11], in the data set with HCT-116 [12] and in the data set on HCT-116 [13] was Active. In addition, the result in the data set with HCT-116 [14], in the data set on HCT-116 [15], in the data set on HCT-116 [17] and in the data set on HCT-116 [18] was Active. The IC50 in the data set with A549 was 50.7 nM. Moreover, the outcome in the data set on HCT-116 [9] was inactive. The MTD in data set [16] amounted to 10 mg/kg.
With `CC[C@@]1(O)C(=O)OCc2c1cc1n(c2=O)Cc2c-1nc1cc3c(cc1c2-c1cc(OC)cc(OC)c1)OCO3`, the result with HCT-116 [1], with HCT-116 [2], with HCT-116 [3], in the data set with HCT-116 [4], in the data set on HCT-116 [5] and with HCT-116 [7] was Active. For the same compound, the result with HCT-116 [21], in the data set on HCT-116 [8], in the data set with HCT-116 [23], in the data set on PDX27454 [26], in the data set with HCT-116 [12] and in the data set with HCT-116 [15] was Active. The result in the data set with HCT-116 [17], in the data set on HCT-116 [18] and with PDX27454 [28] was Active. This compound had an IC50 in the data set on A549 of 28.5 nM. The Activity result was “Dose-Dependent Effect” in the data set on HCT-116 [19]; 9.79% in the data set with HCT-116 [20]; “Dose-Dependent Effect” in the data set with HCT-116 [22]; 26.86% in the data set with HCT-116 [24]; 20.76% in the data set on HCT-116 [25]; “Dose-Dependent Effect” in the data set with HCT-116 [27]. Moreover, the outcome in the data set with HCT-116 [9] was inactive.
As to `CCc1ccc(-c2c3c(nc4cc5c(cc24)OCO5)-c2cc4c(c(=O)n2C3)COC(=O)[C@]4(O)CC)cc1`, the outcome in the data set with HCT-116 [1], in the data set with HCT-116 [2], with HCT-116 [3], in the data set on HCT-116 [4], in the data set with HCT-116 [5] and in the data set with HCT-116 [6] was Active. Besides, the outcome in the data set with PDX27454 [30], with HCT-116 [7], with HCT-116 [21], with HCT-116 [8], with HCT-116 [31] and in the data set with HCT-116 [12] was Active. Also, the outcome in the data set on HCT-116 [14], with HCT-116 [15], in the data set on HCT-116 [17], in the data set with HCT-116 [18] and in the data set on PDX27454 [28] was Active. For the same compound, the outcome in the data set on PDX27454 [29] and with HCT-116 [9] was inactive. The midpoint of inhibition in the data set on A549, the IC50, lay at 57.2 nM. In data set [32], the Activity result is given as “Toxic”.
Regarding `CC[C@@]1(O)C(=O)OCc2c1cc1n(c2=O)Cc2c-1nc1cc3c(cc1c2-c1ccc(OC)cc1)OCO3`, the Activity result is on record as “Toxic” in [33] and greater than 20% in [35]. Besides, the outcome in the data set on HCT-116 [1], in the data set with HCT-116 [2], with HCT-116 [3], in the data set with HCT-116 [4], in the data set with HCT-116 [5] and in the data set on HCT-116 [6] was Active. For the same compound, the result in the data set on HCT-116 [7], with HCT-116 [21], with HCT-116 [8], with PDX27454 [34], in the data set with HCT-116 [31] and in the data set on HCT-116 [12] was Active. The outcome with HCT-116 [14], in the data set on HCT-116 [15], in the data set with HCT-116 [17], in the data set on HCT-116 [18] and with PDX27454 [28] was Active. The same compound came in with a 50% inhibitory concentration (IC50) in the data set with A549 of 43.3 nM. The outcome in the data set on HCT-116 [9] was inactive.
